Results reported in the NIST ThermoML archive (doi:10.1021/je700140j).

Test: xn = mol fraction of the nth substance listed
Settings: for surface tension liquid-gas: Ring tensiometer; for mass density / viscosity: 100.8 kPa, Liquid

OCCc1ccccc1 [2-phenylethanol] + CC(C)O
Settings | mass density, 298.15 K [kg/m3] | mass density, 308.15 K [kg/m3] | surface tension liquid-gas, 298.15 K [mN/m] | surface tension liquid-gas, 308.15 K [mN/m] | viscosity, 298.15 K [mPa·s] | viscosity, 308.15 K [mPa·s]
x2 = 0 | 1016.2 | 1008.63 | 39.43 | 38.93 | 11.4 | 7.518
x2 = 0.05 | 1009.41 | 1002.31 | 38.1 | 37.7 | 10.66 | 7.05
x2 = 0.1 | 1002.07 | 994.92 | 36.9 | 36.58 | 9.933 | 6.594
x2 = 0.15 | 994.41 | 986.76 | 35.8 | 35.47 | 9.256 | 6.148
x2 = 0.2 | 986.36 | 978.65 | 34.7 | 34.38 | 8.618 | 5.726
x2 = 0.25 | 977.95 | – | 33.63 | 33.28 | 8 | –
x2 = 0.3 | 969.14 | – | 32.61 | 32.23 | 7.407 | –
x2 = 0.35 | 959.91 | – | 31.6 | 31.19 | 6.858 | –
x2 = 0.4 | 950.21 | – | 30.6 | 30.17 | 6.35 | –
x2 = 0.45 | 940.02 | – | 29.6 | 29.16 | 5.862 | –
x2 = 0.5 | 929.31 | – | 28.62 | 28.16 | 5.412 | –
x2 = 0.55 | 918.04 | – | 27.65 | 27.17 | 4.978 | –
x2 = 0.6 | 906.21 | – | 26.7 | 26.2 | 4.571 | –
x2 = 0.65 | 893.62 | – | 25.8 | 25.3 | 4.173 | –
x2 = 0.7 | 880.35 | – | 24.98 | 24.48 | 3.793 | –
x2 = 0.75 | 866.25 | – | 24.2 | 23.68 | 3.438 | –
x2 = 0.8 | 851.34 | – | 23.45 | 22.9 | 3.101 | –
x2 = 0.85 | 835.47 | – | 22.75 | 22.2 | 2.808 | –
x2 = 0.9 | 818.57 | – | 22.1 | 21.5 | 2.541 | –
x2 = 0.95 | 800.54 | – | 21.5 | 20.8 | 2.281 | –
